# In patent US9539315B2, “Methods, agents and peptides for inhibiting matrix metalloproteinase-2 signaling” (New York University, priority 2011, dated 2017):
# What was measured:
# Format in all cases: cell-based, human
# [1] = system: MMP-2-specific CD4^+ T cells; assay: Screen of overlapping MMP-2 peptides for recognition by CD4+ T cell clones; settings: 20-mer peptides of MMP-2
# From the text: By way of background, the present inventors used a pool of sixty-six 20-amino acid long, partially overlapping peptides spanning the entire sequence of MMP-2 (SEQ ID NO: 1) to screen for the presence of MMP-2-specific CD4^+ T cells and identify the specific MMP-2 epitopes for which these clones were specific. See, for example, FIG. 6. Using this method, CD4^+ T cell clones specific for eleven distinct and novel MMP-2-derived peptides/epitopes were generated. An empirical approach to determining which, if any, of the potential MMP-2 peptides could induce MMP-2-specific CD4^+ T cells was necessitated because of the nature and complexity of antigen processing and presentation by antigen presenting cells [APCs; e.g., monocyte-derived dendritic cells (DCs)] and the additional complexities involved in T cell recognition of presented antigen, which are influenced by, for example, the presence and/or concentration of particular cytokines that are instructive for divergent T cell differentiation pathways.
# Peripheral blood mononuclear cells (PBMCs) can be purified from healthy donor- (HD) or cord blood donor- (CB) derived buffy coats (New York Blood Center) by Ficoll-Paque Plus (GE Healthcare) centrifugation. CD4^+/CD25^− cells were enriched (>90%) by magnetic cell sorting (Miltenyi Biotec) and primed/stimulated for 12-15 days either with irradiated (35Gy) autologous CD4^− cells or with autologous mature DCs in IMDM (GIBCO) supplemented with 1 mM HEPES (Life Technologies), 2 mM L-glutamine (Sigma), […] (Sigma) and 5% heat inactivated pooled human serum (PHS; Valley Biomedical) in the presence of rhIL-2 (10 UI/mL) and IL7 (5 ng/mL) (R&D Systems). Antigen presenting cells (CD4^− cells or DCs) were loaded either with peptides […] or with the MMP-2 protein (10 μg/mL) for 2 and 5 h, respectively. To generate T cell clones, we originally relied on our published methodology (Godefroy et al., 2006; Godefroy et al., 2007; the entire content of each of which is incorporated herein by reference), involving enrichment of IFNγ-secreting cells upon short-term culture and peptide stimulation to generate MMP-2 responsive clones. Briefly, CD4^+ T cells were stimulated by CD4^− cells irradiated and pulsed with peptides for 12 days in the presence of rhIL-2 and rhIL-7. CD4^+ T cells were then restimulated with peptides for 3 hours before capturing IFNγ-secreting specific cells using a bispecific antibody coating T cells and capturing produced IFNγ. Positive cells were purified magnetically before being cloned. Although MMP-2-specific cells could be isolated, it was realized that IFNγ secretion was marginal compared to their secretion of IL-4 and TNFα. IFNγ-secreting cells in response to MMP-2 peptide pool were enriched by cytokine-guided magnetic cell sorting (Miltenyi Biotec) as described above and cloned the following day by limiting dilution in the presence of irradiated allogeneic PBMCs, 1 μg/mL phytohemagglutinin-L (Sigma) and 150 UI/mL rhIL-2. Tumor infiltrating lymphocytes (TILs) were provided by Pr. F. Jotereau and B. Dréno. They were obtained from tumor-invaded lymph nodes of melanoma patients (stage IIIb) and expanded ex vivo. These patients received autologous TILs and IL-2 infusions in a clinical trial (Labarriere et al., 2002). This protocol was approved by the Institutional Ethics Committee and registered with regulatory state authority in France (Nantes).
# T-bet and GATA-3 expression was measured on resting T cells. Cells were fixed (4% paraformaldehyde for 10 min at RT), permeabilized with 0.1% saponin, and stained for intracellular transcription factors. Cytokine production by T cells was also assessed by intracellular staining. T cells were stimulated with 2 μM overlapping peptides. After 1 h, 10 μg/mL brefeldin A was added to the cells. […]
# OX40L = OX40L expression on DCs (staining); settings: for OX40L expression on DCs: DCs exposed for 2 days, stained for OX40L
# Procedure: (§1) A) DCs were exposed to MMP-2 […] or zymosan […], a known activator of NF-κB that acts via TLR2, for the indicated time. Cytosolic and nuclear fractions were isolated and p50 contents were measured by ELISA. […] C) OX40L over-expression on DCs induced by MMP-2 is inhibited by an inhibitor of NEMO, the NEMO binding domain (NBD) peptide, but not by the corresponding negative control, a NBD mutant.
# A) DCs were exposed to various TLR agonists for 2 days before cells were stained for OX40L. […] B) TLR2-transfected and engineered HEK cells were incubated with MMP-2 (5 mg/ml) or various controls. All conditions were also tested in the presence of a blocking antibody for TLR2. TNFα was used to activate NF-κB in a TLR-independent manner. Twenty hours later, NF-κB activation was measured.
# Antibody to OX40L (11C3.1) was from Biolegend. Blocking antibodies to TLR-2 and TLR-6 were from Invivogen. Antibodies to GATA-3, IL-4 (8D4-8), IL-5 (JES1-39D10), IL-13 (JES10-5A2), TNFα (MAb11), IFNγ (25723.11), perforin (δG9), GranzymeB (GB11), CD40 (5C3), CD80 (L307.4), CD83 (HB15e), CD86 (IT2.2), HLA-DR (TU36), fluorescein isothiocyanate-conjugated antibodies to CD45RA (HI100) and CD45RO (UCHL1), and antibody to CD4 (RPA-T4) were purchased from BD Biosciences Pharmingen. Alexa fluor 488-conjugated antibody to IL-17 (eBio64DEC17), phycoerythrine-conjugated antibody to T-bet (4B10).
# (§2) PBMCs were purified from healthy-(HD) or cord blood- (CB) donors and plated at 40×10^6 cells/10 mL/dish in complete IMDM with 5% PHS. Cells were allowed to adhere for 2 h at 37° C. Non-adherent cells were removed. The monocyte-enriched fraction was supplemented with 100 UI/mL rhGMCSF and 300 UI/mL rhIL-4 (R&D Systems) on days 0, 2 and 4. Immature DCs were harvested on day 5 and matured using poly(I:C) at 5 μg/mL/10^6 DCs (Amersham). Secretion of IL-12p70, TNFα, IL-1β, IL-6, IL-8 and IL-10 was assessed on both immature and mature DCs using the Human Inflammatory Cytokine Cytometric Bead Array (BD Pharmingen).
# NF-κB pathway = assay: p50 nuclear translocation / NF-κB activation in DCs (ELISA of cytosolic and nuclear fractions)
# Procedure: as §1, §2
# Activation of T cell clones (10,000 cells/100 μL/well), polyclonal T cell populations (100,000 cells/100 μL/well), and DCs (50,000 cells/100 μL/well) can be determined by ELISA. IFNγ (BioSource), TNFα (BioSource), IL-4 (BioSource), IFNβ (VeriKine; PBL interferon source) and MCP-3 (DuoSet; R&D Systems) contents in supernatants were measured according to the manufacturer's instructions. p50 was measured in cytosolic and nuclear fractions (fractions separated using the nuclear separation kit from Active motif) by ELISA (Active motif).
Molecule,recognition as epitope by CD4+ T cell clones [1],also measured
GCLLSHAAAAPSPIIKFPGD (listed as Homo sapiens) [P21-40],recognized by CD4^+ T cell clones,–
RIHDGEADIMINFGRWEHGD (listed as Homo sapiens) [P161-180],recognized by CD4^+ T cell clones,–
TGPLRALCLLGCLLSHAAAA (listed as Homo sapiens) [P11-30],recognized by CD4^+ T cell clones,–
VAPKTDKELAVQYLNTFYGC (listed as Homo sapiens) [P41-60],recognized by CD4^+ T cell clones,–
AFNWSKNKKTYIFAGDKFWR (listed as Homo sapiens) [P571-590],recognized by CD4^+ T cell clones,–
Pam3CSK4,–,OX40L over-expression on TLR-2-transfected HEK cells or DCs (OX40L; TLR-2/TLR-1 agonist): did not induce OX40L over-expression
MEALMARGALTGPLRALCLL (listed as Homo sapiens) [P1-20],recognized by CD4^+ T cell clones,–
NEMO binding domain (NBD) peptide,–,"inhibition of OX40L over-expression on DCs induced by MMP-2 (OX40L; DCs, MMP-2-induced): inhibited"
GYPKPLTSLGLPPDVQRVDA (listed as Homo sapiens) [P551-570],recognized by CD4^+ T cell clones,–
FFKGAYYLKLENQSLKSVKF (listed as Homo sapiens) [P631-650],recognized by CD4^+ T cell clones,–
GFPKLIADAWNAIPDNLDAV (listed as Homo sapiens) [P601-620],recognized by CD4^+ T cell clones,–
ESCTSAGRSDGKMWCATTAN (listed as Homo sapiens) [P361-380],recognized by CD4^+ T cell clones,–
VDLQGGGHSYFFKGAYYLKL (listed as Homo sapiens) [P621-640],recognized by CD4^+ T cell clones,–
MALP-2,–,OX40L expression on DCs (OX40L): induce OX40L on DCs
heat-inactivated (HI) MMP-2: MMP-2 enzyme inactivated by heating to 56° C. for 45 min (protein) YNFFPRKPKWDKNQITYRIIGYTPDLDPETVDDAFARAFQVWSDVTPLRFSRIHDGEADIMINFGRWEHGDGYPFDGKDGLLAHAFAPGTGVGGDSHFDDDELWTLGEGQVVRVKYGNADGEYCKFPFLFNGKEYNSCTDTGRSDGFLWCSTTYNFEKDGKYGFCPHEALFTMGGNAEGQPCKFPFRFQGTSYDSCTTEGRTDGYRWCGTTEDYDRDKKYGFCPETAMSTVGGNSEGAPCVFPFTFLGNKYESCTSAGRSDGKMWCATTANYDDDRKWGFCPDQGYSLFLVAAHEFGHAMGLEHSQDPGALMAPIYTYTKNFRLSQDDIKGIQELYGASPDIDLGTGPTPTLGPVTPEICKQDIVFDGIAQIRGEIFFFKDRFIWRTVTPRDKPMGPLLVATFWPELPEKIDAVYEAPQEEKAVFFAGNEYWIYSASTLERGYPKPLTSLGLPPDVQRVDAAFNWSKNKKTYIFAGDKFWRYNEVKKKMDPGFPKLIADAWNAIPDNLDAVVDLQGGGHSYFFKGAYYLKLENQSLKSVKFGSIKSDWLGC,–,"p50 translocation in the nucleus (NF-κB pathway; DCs exposed to MMP-2 (5 μm/ml) or zymosan (10 μm/ml), p50 by ELISA): trigger p50 translocation in the nucleus; NF-κB activation in DCs (NF-κB pathway; active vs heat-inactivated MMP-2): NF-κB activation (FIGS. 2A, 2B and 3) at similar levels; OX40L expression on DCs (OX40L): induce OX40L expression"
